Measurements published in US20070099888A1, “Inflammation Inhibitor Comprising Zinc Salt of Acylamino Acid” (priority 2004, published 2007).

test system: AP-1; experiment: Effect of the zinc salt of acylamino acid on AP-1 activation by ultraviolet light (gel shift assay); type: cell-based; settings: human dermal fibroblasts; 50 μM test compound added 18 hours before UVA 20 J/cm2; nuclear protein collected after 4 to 5 hours
Description: After 18 hours, the culture medium was replaced with a phenol red-free medium. By using […]-80 (manufactured by Toshiba Medical Supply Co., Ltd.), the fibroblasts were irradiated with ultraviolet light (UVA: 20 J/cm2). After 4 to 5 hours, the cells were collected, and a nuclear protein was extracted by a standard method. With regard to the obtained nuclear protein, activated AP-1 was detected by a gel shift assay. By measuring the radioactivity value of the AP-1 band using a bioimaging analyzer, BAS2000 (manufactured by Fuji Film Co., Ltd.), the amount of AP-1 was quantified. The inhibition ratio of activation of AP-1 of the test compound was calculated by the following formula. […] A1: radioactivity value of AP-1 band with addition of test compound […] A3: radioactivity value of AP-1 band without addition of test compound and without ultraviolet irradiation

Row | SMILES | Inhibition ratio of activation of AP-1 [%]
1 | N[C@@H](CCC(=O)[O-])C(=O)[O-].[Zn+2] [Zinc salt of L-glutamic acid] | 2.4
2 | CCCCCCCCCCCC(=O)NCC(=O)[O-].CCCCCCCCCCCC(=O)NCC(=O)[O-].[Zn+2] [Zinc salt of N-lauroyl glycine] | 59.2
3 | CCCCCCCCCCCC(=O)N[C@@H](CCC(=O)[O-])C(=O)[O-].[Zn+2] [Zinc salt of N-lauroyl-L-glutamic acid] | 89.6
4 | CCCCCCCCCCCC(=O)N[C@@H](Cc1c[nH]cn1)C(=O)[O-].CCCCCCCCCCCC(=O)N[C@@H](Cc1c[nH]cn1)C(=O)[O-].[Zn+2] [Zinc salt of N-lauroyl-L-histidine] | 54.8
5 | NCC(=O)[O-].NCC(=O)[O-].[Zn+2] [Zinc salt of glycine] | −72.8
6 | CCCCCCCCCCCC(=O)[O-].CCCCCCCCCCCC(=O)[O-].[Zn+2] [Zinc salt of lauric acid] | 9.1
